# Assay results from patent publication US20130203110A1 (priority 2010, published 2013).
# Molecular target: α7 subunit of the nicotinic Acetylcholine Receptor (nAchR) (Homo sapiens, UniProt P36544)
# Type: biochemical
# α7 subunit of the nicotinic Acetylcholine Receptor (nAchR), sequence (P36544 23-502 limits assumed): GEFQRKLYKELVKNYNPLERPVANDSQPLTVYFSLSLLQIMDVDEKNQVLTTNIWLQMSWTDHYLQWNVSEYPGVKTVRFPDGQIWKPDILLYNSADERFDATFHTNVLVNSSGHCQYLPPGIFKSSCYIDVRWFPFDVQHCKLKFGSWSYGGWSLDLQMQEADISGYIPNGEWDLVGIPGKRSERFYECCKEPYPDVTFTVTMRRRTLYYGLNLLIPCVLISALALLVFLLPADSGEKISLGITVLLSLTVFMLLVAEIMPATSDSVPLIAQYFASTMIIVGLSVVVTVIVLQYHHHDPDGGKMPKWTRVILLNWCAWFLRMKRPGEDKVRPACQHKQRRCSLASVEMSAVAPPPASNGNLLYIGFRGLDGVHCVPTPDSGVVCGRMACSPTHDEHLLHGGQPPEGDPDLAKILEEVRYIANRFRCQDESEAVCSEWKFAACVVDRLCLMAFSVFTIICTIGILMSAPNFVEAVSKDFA
Compound,signal on activation of the nAchR sensor,carbamoylcholine-induced signal after incubation with inhibitor
"C[N+](C)(C)CCOC(N)=O.[Cl-] [carbamoylcholinechloride, Carbamoylcholine chloride]",results in a signal,
α-Bungarotoxin [α-BTX],,could not be generated the same way
